Experimental data: patent publication US8318730B2, “Fused hetrocyclic compounds” (Synta Pharmaceuticals Corporation, priority 2003, dated 2012)
Values belong to the compound of their own block, whether it stands above or below them.

How the values were obtained:
[1] = system: colitis in C.B-17 SCID mice; test: CD4+ CD45Rb high T cell-reconstituted SCID colitis model mice; format: in vivo, mouse
Procedure: Spleen cells are prepared from normal female BALB/c mice. For cell purification, the following anti-mouse antibodies are used to label non-CD4^+ T cells: B220 (RA3-6B2), CD11b (Ml/70), and CD8a (53-6.72). All antibodies are obtained from BioSource (Camarillo, Calif.). M450 anti-rat IgG-coated magnetic beads (Dynal, Oslo, Norway) are used to bind the antibodies and negative selection is accomplished using an MPC-1 magnetic concentrator. The enriched CD4^+ cells are then labeled for cell sorting with FITC-conjugated CD45RB (16A, Pharmingen, San Diego, Calif.) and PE-conjugated CD4 (CT-CD4, Caltag, Burlingame, Calif.). CD4^+ CD45RB^high cells are operationally defined as the upper 40% of CD45Rb-staining CD4^+ cells and sorted under sterile conditions by flow cytometry. Harvested cells are resuspended at 4×10^6/mL in PBS and injected 100 μL intraperitoneally into female C.B-17 SCID mice. Fused heterocyclic compounds of this invention and/or vehicle is orally administered once a day, 5 days per week, starting the day following the transfer. The transplanted SCID mice are weighed weekly and their clinical condition is monitored.
Colon tissue samples are fixed in 10% buffered formalin and embedded in paraffin. Sections (4 μm) collected from ascending, transverse, and descending colon are cut and stained with hematoxylin and eosin. The severity of colitis is determined based on histological examination of the distal colon sections, whereby the extent of colonic inflammation is graded on a scale of 0-3 in each of four criteria: crypt elongation, cell infiltration, depletion of goblet cells, and the number of crypt abscesses.
LP lymphocytes are isolated from freshly obtained colonic specimens. After removal of payer's patches, the colon is washed in Ca/Mg-free HBSS, cut into 0.5 cm pieces and incubated twice in HBSS containing EDTA (0.75 mM), DTT (1 mM), and antibiotics (amphotericin 2.5 μg/mL, gentamicin 50 μg/mL from Sigma) at 37° C. for 15 min. Next, the tissue is digested further in RPMI containing 0.5 mg/mL collagenase D, 0.01 mg/mL DNase I (Boehringer Manheim), and antibiotics at 37° C. LP cells are then layered on a 40-100% Percoll gradient (Pharmacia, Uppsala, Sweden), and lymphocyte-enriched populations are isolated from the cells at the 40-100% interface.
To measure cytokine production, 48-well plates are coated with 10 μg/mL murine anti-CD3ε antibody (145-2C11) in carbonate buffer (PH 9.6) overnight at 4° C. 5×10^5 LP cells are then cultured in 0.5 ml of complete medium in precoated wells in the presence of 1 μg/mL soluble anti-CD28 antibody (37.51). Purified antibodies are obtained from Pharmingen. […] Murine IFNγ is measured using an ELISA kit from Endogen (Cambridge, Mass.), according to the manufacturer's instructions.

[2] = system: IL-12 production; test: In vitro assay of Example 12: inhibition of IL-12 production in IFNγ/LPS- or IFNγ/SAC-stimulated cells, ELISA; format: cell-based, human
Description: The biological activities of a compound can be evaluated by a number of cell-based assays. One of such assays can be conducted using cells from human peripheral blood mononuclear cells (PBMC) or human monocytic cell line (THP-1). The cells are stimulated with a combination of human interferon-γ (IFNγ) and lipopolysaccharide or a combination of IFNγ and Staphylococcus aureus Cowan I in the presence of a test compound. The level of inhibition of IL-12 production can be measured by determining the amount of p70 by using a sandwich ELISA assay with anti-human IL-12 antibodies. IC50 of the test compound can then be determined. Specifically, PBMC or THP-1 cells are incubated with the test compound. Cell viability was assessed using the bioreduction of MTS [3-(4,5-dimethylthiazol-2-yl)-5-(3-carboxymethoxyphenyl)-2-(4-sulfophenyl)-2H-tetrazolium] (Promega, Madison, Wis.).
Staphylococcus aureus Cowan I (SAC) is obtained from Calbiochem (La Jolla, Calif.), and lipopolysaccharide (LPS, Serratia marscencens) is obtained from Sigma (St. Louis, Mo.). Human and mouse recombinant IFNγ are purchased from Boehringer Mannheim (Mannheim, Germany) and Pharmingen (San Diego, Calif.), respectively.
Human PBMC are isolated by centrifugation using Ficoll-Paque (Pharmacia Biotech, Uppsala, Sweden) and prepared in RPMI medium supplemented with 10% fetal calf serum (FCS), 100 U/mL penicillin, and 100 μg/mL streptomycin. PBMC are plated in wells of a 96-well plate at a concentration of 5×10^5 cells/well, and primed by adding IFNγ (30 U/mL) for 22 h and stimulated by adding LPS (1 μg/mL), or by adding IFNγ (100 U/mL) and then stimulated by adding SAC (0.01%). A test quinazoline compound is dissolved in DMSO, and added to wells of the 96-well plate. The final DMSO concentration is adjusted to 0.25% in all cultures, including the compound-free control. Human THP-1 cells are plated in wells, primed by adding IFNγ (100 U/mL) for 22 h and stimulated by adding SAC (0.025%) in the presence of different concentrations of the quinazoline compound. Cell-free supernatants are taken 18 h later for measurement of cytokines. Cell viability is assessed using the bioreduction of MTS. Cell survival is estimated by determining the ratio of the absorbance in compound-treated groups versus compound-free control.
The supernatant is assayed for the amount of IL-12p40, IL-12p70, or IL-10 by using a sandwich ELISA with anti-human antibodies, i.e., a Human IL-12 p40 ELISA kit from R&D Systems (Berkeley, Calif.), and a Human IL-12 p70 or IL-10 ELISA kit from Endogen (Cambridge, Mass.). Assays are based on the manufacturer's instructions.
The biological activities of quinazoline compounds are tested on human PBMC or THP-1 cells.

[3] = system: DNBS-induced distal colitis in Wistar derived rats; test: Dinitrobenzene sulfonic acid-induced inflammatory bowel syndrome model rats; format: in vivo, rat; settings: oral, 24 and 2 hours before DNBS instillation and then daily for 5 days
Procedure: Wistar derived male or female rats weighing 200±20 g and fasted for 24 hours are used. Distal colitis was induced by intra-colonic instillation of 2,4-dinitrobenzene sulfonic acid (DNBS, 25 mg in 0.5 mL ethanol 30%) after which air (2 mL) is gently injected through the cannula to ensure that the solution remained in the colon. A test compound and/or vehicle is administered orally 24 and 2 hours before DNBS instillation and then daily for 5 days. One control group is similarly treated with vehicle alone while the other is treated with vehicle plus DNBS. The animals are sacrificed 24 hours after the final dose of test compound administration and each colon is removed and weighed. Colon-to-body weight ratio is then calculated for each animal according to the formula: Colon (g)/BW×100. The “Net” increase in ratio of Vehicle-control+DNBS group relative to Vehicle-control group is used as a base for comparison with test substance treated groups and expressed as “% Deduction.” Fused heterocyclic compounds of this invention (e.g., Compound 12) reproducibly have about 30% deduction. A 30% or more reduction in colon-to-body weight ratio, relative to the vehicle treated control group, is considered significant.

[4] = system: adjuvant arthritis (AA) in female Lewis rats; test: Treatment of adjuvant arthritis in rats; format: in vivo, rat; settings: oral administration once a day for 12 days; dose-dependent
Procedure: Adjuvant arthritis (AA) is induced in female Lewis rats by the intracutaneous injection (base of the tail) of 0.1 mL of a 10 mg/mL bacterial suspension made from ground, heat-killed Mycobacterium tuberculosis H37Ra suspended in incomplete Freund's adjuvant. Rats are given a test compound orally once a day for 12 days, starting the day following the induction. The development of polyarthritis is monitored daily by macroscopic inspection and assignment of an arthritis index to each animal, during the critical period (days 10 to 25 post-immunization).
The intensity of polyarthritis scored according to the following scheme: (a) Grade each paw from 0 to 3 based on erythema, swelling, and deformity of the joints: 0 for no erythema or swelling; 0.5 if swelling is detectable in at least one joint; 1 for mild swelling and erythema; 2 for swelling and erythema of both tarsus and carpus; and 3 for ankylosis and bony deformity. Maximum score for all 4 paws is thus 12. (b) Grade for other parts of the body: for each ear, 0.5 for redness and another 0.5 if knots are present; 1 for connective tissue swelling (saddle nose); and 1 for the presence of knots or kinks in the tail. The highest possible arthritic index is […].

[5] = Homo sapiens, assay of Example 12, if more than one assay was performed, only the most active IC50 result is reported
[6] = measured in an assay according to Example 12, human PBMC or THP-1 cells

IC50 [2, 5]: 189 nM
SMILES: Cc1cccc(-c2ccc3nc(OCCN4CCOCC4)nc(N4CCOCC4)c3c2)c1 [Compound 12, 4-Morpholin-4-yl-2-(2-morpholin-4-yl-ethoxy)-6-m-tolyl-quinazoline]
IFNγ production by LP cells in response to anti-CD3 and anti-CD28 antibody ([1]; ex vivo LP cells from treated mice): greatly diminishes the production | colon-to-body weight ratio ([1]; oral administration): attenuation | colonic inflammation (histological analysis) ([1]; oral administration, compared to vehicle control): reduce colonic inflammation | colonic inflammation, suppressive effect ([1]; oral, dose of 10 mg/kg): substantial reduction | % Deduction (colon-to-body weight ratio) [3]: about 30% | arthritic score [4]: reproducibly reduces the arthritic score | development of polyarthritis [4]: delayes the development of polyarthritis

IC50 [2, 6]: 298 nM
SMILES: Cc1cccc(/C=N/Nc2nc(N3CCOCC3)nc3cc(Cl)ccc23)c1 [Compound 8, N-(7-Chloro-2-morpholin-4-yl-quinazolin-4-yl)-N′-(3-methyl-benzylidene)-hydrazine]

IC50 [2, 5]: 400 nM
SMILES: COc1cccc(-c2ccc3nc(OCCc4ccc(OC)c(OC)c4)nc(N4CCOCC4)c3c2)c1 [Compound 25, 2-[2-(3,4-Dimethoxy-phenyl)-ethoxy]-6-(3-methoxy-phenyl)-4-morpholin-4-yl-quinazoline]

IC50 [2, 5]: 189 nM
SMILES: COc1ccc(CCOc2nc(N3CCOCC3)c3cc(-c4cccc(C)c4)ccc3n2)cc1OC [Compound 15, 2-[2-(3,4-Dimethoxy-phenyl)-ethoxy]-4-morpholin-4-yl-6-m-tolyl-quinazoline]

IC50 [2, 5]: > 10000 nM
SMILES: COc1ccc(CCOc2nc(N3CCOCC3)c3cc(-c4ccc(F)cc4)ccc3n2)cc1OC [Compound 33, 6-(4-Fluoro-phenyl)-2-[2-(3,4-dimethoxy-phenyl)-ethoxy]-4-morpholin-4-yl-quinazoline]

IC50 [2, 6]: 60.5 nM
SMILES: COc1cc2nc(N3CCOCC3)nc(NC(=O)Nc3cccc(C)c3)c2cc1OC [Compound 6, 1-(6,7-dimethoxy-2-morpholin-4-yl-quinazolin-4-yl)-3-m-tolyl-urea]

IC50 [2, 5]: > 10000 nM
SMILES: COc1ccc(CCOc2nc(N3CCOCC3)c3cc(Nc4ccccc4C)ccc3n2)cc1OC [Compound 41, {2-[2-(3,4-Dimethoxy-phenyl)-ethoxy]-4-morpholin-4-yl-quinazolin-6-yl}-o-tolyl-amine]

IC50 [2, 5]: > 10000 nM
SMILES: COc1ccc(CCOc2nc(N3CCOCC3)c3cc(Nc4ccc(C)cc4)ccc3n2)cc1OC [Compound 40, {2-[2-(3,4-Dimethoxy-phenyl)-ethoxy]-4-morpholin-4-yl-quinazolin-6-yl}-p-tolyl-amine]

IC50 [2, 5]: 419 nM
SMILES: COc1ccc(-c2ccc3nc(OCCc4ccc(OC)c(OC)c4)nc(N4CCOCC4)c3c2)cc1 [Compound 31, 2-[2-(3,4-Dimethoxy-phenyl)-ethoxy]-6-(4-methoxy-phenyl)-4-morpholin-4-yl-quinazoline]

IC50 ([2]; Homo sapiens, in an assay according to Example 12): 5400 nM
SMILES: Cc1cccc(-c2cc(O)c3cc(OCCN4CCOCC4)cc(N4CCOCC4)c3n2)c1 [Compound 49, 8-Morpholin-4-yl-6-(2-morpholin-4-yl-ethoxy)-2-m-tolyl-quinolin-4-ol]

IC50 [2, 5]: 1820 nM
SMILES: COCCOc1nc(N2CCOCC2)c2cc(-c3cccc(C)c3)ccc2n1 [Compound 13, 2-(2-Methoxy-ethoxy)-4-morpholin-4-yl-6-m-tolyl-quinazoline]
